ChEMBL document CHEMBL1649570, “Pharmacokinetics and ex vivo pharmacodynamic antimalarial activity of dihydroartemisinin-piperaquine in patients with uncomplicated falciparum malaria in Vietnam” (Antimicrob Agents Chemother, 2009)
Converted amounts (≈) assume the structure as drawn. Blank lines part the entries; values can stand above or below the compound they belong to. The source made the active and inactive calls. The calls are words filed in the database; no cut-off is given here.

Tests used:
Plasmodium falciparum [1] = experiment: Antiplasmodial activity against Plasmodium falciparum K1 assessed as inhibition of [3H]hypoxanthine incorporation by beta counting; format: functional, organism-based
[2] = AUC in Plasmodium falciparum-infected patient at 40 mg/kg, po; format: ADME, organism-based; parameters: dose 40 mg/kg, route oral; settings: human, plasma
[3] = Half life in Plasmodium falciparum-infected patient at 40 mg/kg, po; format: ADME, organism-based; parameters: dose 40 mg/kg, route oral; settings: human, in vivo
Homo sapiens [4] = experiment: Apparent oral clearance in Plasmodium falciparum-infected patient at 40 mg/kg, po; format: ADME, organism-based; parameters: dose 40 mg/kg, route oral; settings: in vivo
Plasmodium falciparum [5] = experiment: Antiplasmodial activity against Plasmodium falciparum D6; format: functional
[6] = Cmax in Plasmodium falciparum-infected patient at 40 mg/kg, po; format: ADME, organism-based; parameters: dose 40 mg/kg, route oral; settings: human, in vivo
Plasmodium falciparum [7] = experiment: Antiplasmodial activity against Plasmodium falciparum D6 isolated from po dosed patient with malaria; format: functional
Homo sapiens [8] = experiment: AUC (0 to infinity) in Plasmodium falciparum-infected patient at 40 mg/kg, po; format: ADME, organism-based, Plasma; parameters: time infinity, dose 40 mg/kg, route oral; settings: in vivo
Plasmodium falciparum [9] = experiment: Antiplasmodial activity against Plasmodium falciparum K1; format: functional
[10] = Tmax in Plasmodium falciparum-infected patient at 40 mg/kg, po; format: ADME, organism-based; parameters: dose 40 mg/kg, route oral; settings: human, in vivo
Plasmodium falciparum [11] = experiment: Antiplasmodial activity against Plasmodium falciparum K1 isolated from po dosed patient with malaria; format: functional
[12] = AUC in Plasmodium falciparum-infected patient at 320 mg/kg, po; format: ADME, organism-based; parameters: dose 320 mg/kg, route oral; settings: human, plasma
Plasmodium falciparum [13] = experiment: Antiplasmodial activity against Plasmodium falciparum K1 isolated from po dosed patient with malaria after 7 days; format: functional, organism-based
Plasmodium falciparum [14] = experiment: Antiplasmodial activity against Plasmodium falciparum D6 isolated from po dosed patient with malaria after 7 days; format: functional, organism-based
[15] = Tmax in Plasmodium falciparum-infected patient at 320 mg/kg, po; format: ADME, organism-based; parameters: dose 320 mg/kg, route oral; settings: human, in vivo
[16] = AUC (0 to infinity) in Plasmodium falciparum-infected patient at 320 mg/kg, po; format: ADME, organism-based; parameters: time infinity, dose 320 mg/kg, route oral; settings: human, plasma
Plasmodium falciparum [17] = experiment: Antiplasmodial activity against Plasmodium falciparum K1 isolated from patient with malaria at 25 ng/ml after 28 days; format: functional, organism-based
[18] = Half life in Plasmodium falciparum-infected patient at 320 mg/kg, po; format: ADME, organism-based; parameters: dose 320 mg/kg, route oral; settings: human, in vivo
[19] = Plasma concentration in Plasmodium falciparum-infected patient at 320 mg/kg, po after 28 days; format: ADME, organism-based; parameters: dose 320 mg/kg, route oral; settings: human
Plasmodium falciparum [20] = experiment: Antiplasmodial activity against Plasmodium falciparum D6 isolated from patient with malaria at 25 ng/ml after 28 days; format: functional, organism-based
[21] = Cmax in Plasmodium falciparum-infected patient at 320 mg/kg, po; format: ADME, organism-based; parameters: dose 320 mg/kg, route oral; settings: human, in vivo

Structure (SMILES): C[C@H]1[C@@H](O)O[C@@H]2O[C@@]3(C)CC[C@H]4[C@H](C)CC[C@@H]1[C@@]24OO3 [ARTENIMOL]
IC50 (Plasmodium falciparum [1]): 2.57 nM
AUC [2]: 1950 ng·h/mL
half-life [3]: 0.85 h
CL/F (Homo sapiens [4]): 19.8 mL/min/kg
IC90 (Plasmodium falciparum [5]): 4.5 nM
Cmax [6]: 698 ng/mL
ID90 (Plasmodium falciparum [7]): 0.639 µg/mL (≈ 2.25 µM)
AUC (Homo sapiens [8]): 1949 ng·h/mL
IC90 (Plasmodium falciparum [9]): 4.85 nM
Tmax [10]: 2.8 h
ID90 (Plasmodium falciparum [11]): 0.513 µg/mL (≈ 1.8 µM)

IC50 (Plasmodium falciparum [1]): 82.1 nM
AUC [12]: 44400 ng·h/mL
IC90 (Plasmodium falciparum [5]): 67.5 nM
Tmax [15]: 5.7 h
AUC(0-inf) [16]: 56400 ng·h/mL
half-life [18]: 427 h
IC90 (Plasmodium falciparum [9]): 122 nM
concentration at 672 h [19]: 25 ng/mL
Cmax [21]: 568 ng/mL
Structure (SMILES): Clc1ccc2c(N3CCN(CCCN4CCN(c5ccnc6cc(Cl)ccc56)CC4)CC3)ccnc2c1 [PIPERAQUINE]
Cp (Plasmodium falciparum [13]): 25 ng/mL
Cp (Plasmodium falciparum [14]): 25 ng/mL
Activity (Plasmodium falciparum [17]): inactive
Activity (Plasmodium falciparum [20]): inactive
